Test results from ChEMBL document CHEMBL4118077, “Synthesis of thiazole linked indolyl-3-glyoxylamide derivatives as tubulin polymerization inhibitors” (Eur J Med Chem, 2017).

Key:
DU-145 = experiment: Antiproliferative activity against human DU145 cells after 48 hrs by MTT assay; type: functional, cell-based; details: DU-145, 48 h
PC-3 = experiment: Antiproliferative activity against human PC3 cells after 48 hrs by MTT assay; type: functional, cell-based; details: PC-3, 48 h
HCT-15 = experiment: Antiproliferative activity against human HCT15 cells after 48 hrs by MTT assay; type: functional, cell-based; details: HCT-15, 48 h
A549 = experiment: Antiproliferative activity against human A549 cells after 48 hrs by MTT assay; type: functional, cell-based; details: A549, 48 h
Sus scrofa = species: Sus scrofa; experiment: Inhibition of porcine brain tubulin polymerization at 5 uM measured for 1 hr by fluorescence assay relative to control

IC50 (DU-145) | IC50 (PC-3) | IC50 (HCT-15) | IC50 (A549) | inhibition (Sus scrofa) | SMILES
4.6 µM | 8.5 µM | 10.3 µM | 20.9 µM | 21.3% | CCOC(=O)c1nc(NC(=O)Cn2cc(C(=O)C(=O)NC3CC3)c3ccccc32)sc1C
> 50 µM | > 50 µM | > 50 µM | > 50 µM |  | O=C(CCn1cc(C(=O)C(=O)N2CCCCC2)c2ccccc21)Nc1nccs1
3.21 µM | 8.2 µM |  | > 50 µM |  | CCOC(=O)c1nc(NC(=O)Cn2cc(C(=O)C(=O)N3CCCCC3)c3ccccc32)sc1C
> 50 µM | > 50 µM | > 50 µM | > 50 µM | 12.2% | CCOC(=O)c1nc(NC(=O)CCn2cc(C(=O)C(=O)N3CCCCC3)c3ccccc32)sc1C

The remaining lines, values behind:

SMILES | IC50 (DU-145) | IC50 (PC-3) | IC50 (HCT-15) | IC50 (A549) | inhibition (Sus scrofa)
COc1ccc2sc(NC(=O)Cn3cc(C(=O)C(=O)N4CCCCC4)c4ccccc43)nc2c1 | 6.4 µM | 4.2 µM | > 50 µM | > 50 µM | 38.5%
CCOC(=O)c1nc(NC(=O)Cn2cc(C(=O)C(=O)Nc3ccccc3)c3ccccc32)sc1C | 0.14 µM | 6.1 µM | 2.5 µM | 6.3 µM | 58.4%
O=C(Cn1cc(C(=O)C(=O)NC2CC2)c2ccccc21)Nc1nccs1 | > 50 µM | > 50 µM |  | > 50 µM | 
Cc1ccc(-c2csc(NC(=O)Cn3cc(C(=O)C(=O)Nc4ccccc4)c4cc(Br)ccc43)n2)cc1 | 10.2 µM | > 50 µM | > 50 µM | > 50 µM | 
COc1ccc2sc(NC(=O)Cn3cc(C(=O)C(=O)NC4CC4)c4ccccc43)nc2c1 | 5.5 µM | 9.4 µM | > 50 µM | > 50 µM | 
O=C(Cn1cc(C(=O)C(=O)N2CCCCC2)c2ccccc21)Nc1nc(-c2ccccc2)cs1 | 25.4 µM | > 50 µM | > 50 µM | > 50 µM | 
O=C(Cn1cc(C(=O)C(=O)NC2CC2)c2ccccc21)Nc1nc(-c2ccccc2)cs1 | > 50 µM | > 50 µM |  | 41.8 µM | 
